Test results published in ChEMBL document CHEMBL1909046, “DrugMatrix in vitro pharmacology data”.

Experiments:
[1] = molecular target: Sodium-dependent noradrenaline transporter (Homo sapiens, UniProt P23975); assay: DRUGMATRIX: Norepinephrine Transporter radioligand binding (ligand: [125I] RTI-55); assay type: cell membranes, MDCK, Membrane; settings: Not Active = under 50% inhibition at 10 µM
[2] = DRUGMATRIX: Leukotriene, BLT (LTB4) radioligand binding (ligand: [3H]LTB4); assay type: cell membranes, Membrane; settings: u-937; Not Active = under 50% inhibition at 10 µM
[3] = molecular target: Protein phosphatase 3 catalytic subunit alpha (Homo sapiens, UniProt Q08209); set-up: species or system Escherichia coli;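 further: inhibition of calcineurin (PP2B) enzyme activity, measured with DiFMUP as the substrate; in other assays of this panel Not Active means under 50% inhibition at 10 µM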
[4] = molecular target: Beta-2 adrenergic receptor (Homo sapiens, UniProt P07550); assay: DRUGMATRIX: Adrenergic beta2 radioligand binding (ligand: [3H] CGP-12177); assay type: cell membranes, Membrane; settings: cho; Not Active = under 50% inhibition at 10 µM
[5] = DRUGMATRIX: beta-Lactamase enzyme inhibition (substrate: Nitrocefin); set-up: species or system Bacillus cereus; settings: Not Active = under 50% inhibition at 10 µM
[6] = molecular target: T1, C-X-C chemokine receptor type 1 (Homo sapiens, UniProt P25024); further: in other assays of this panel Not Active means under 50% inhibition at 10 µM
T1 sequence (P25024 whole entry): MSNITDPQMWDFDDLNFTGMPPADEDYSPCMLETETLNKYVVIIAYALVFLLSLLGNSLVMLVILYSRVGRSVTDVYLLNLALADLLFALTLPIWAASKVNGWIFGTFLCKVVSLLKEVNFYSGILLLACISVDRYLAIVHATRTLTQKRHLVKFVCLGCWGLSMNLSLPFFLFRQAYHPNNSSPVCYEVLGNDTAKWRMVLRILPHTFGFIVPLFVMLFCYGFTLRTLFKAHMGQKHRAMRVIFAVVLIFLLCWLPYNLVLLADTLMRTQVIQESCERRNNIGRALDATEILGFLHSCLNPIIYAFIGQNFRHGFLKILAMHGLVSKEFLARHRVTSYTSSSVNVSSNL

Adenosine receptor A2a = Adenosine receptor A2a (Homo sapiens, UniProt P29274); assay: DRUGMATRIX: Adenosine A2A radioligand binding (ligand: […]); assay type: cell membranes, HEK293, Membrane; settings: hek293; Not Active = under 50% inhibition at 10 µM
[7] = DRUGMATRIX: Glutamate, Kainate radioligand binding (ligand: [3H] Kainic acid); assay type: cell membranes, Rattus norvegicus, Wistar, Brain, Membrane; settings: Not Active = under 50% inhibition at 10 µM
Histamine H2 receptor = Histamine H2 receptor (Homo sapiens, UniProt P25021); assay type: cell membranes, CHO-K1, Membrane; settings: for Ki: read-out: Ki; on all read-outs here: in other assays of this panel Not Active means under 50% inhibition at 10 µM
[8] = molecular target: Kappa-type opioid receptor (Homo sapiens, UniProt P41145); assay: DRUGMATRIX: Opiate kappa (OP2, KOP) radioligand binding (ligand: [3H] Diprenorphine); assay type: cell membranes, HEK293, Membrane; settings: hek293; Not Active = under 50% inhibition at 10 µM
Chain of Kappa-type opioid receptor (P41145 whole entry): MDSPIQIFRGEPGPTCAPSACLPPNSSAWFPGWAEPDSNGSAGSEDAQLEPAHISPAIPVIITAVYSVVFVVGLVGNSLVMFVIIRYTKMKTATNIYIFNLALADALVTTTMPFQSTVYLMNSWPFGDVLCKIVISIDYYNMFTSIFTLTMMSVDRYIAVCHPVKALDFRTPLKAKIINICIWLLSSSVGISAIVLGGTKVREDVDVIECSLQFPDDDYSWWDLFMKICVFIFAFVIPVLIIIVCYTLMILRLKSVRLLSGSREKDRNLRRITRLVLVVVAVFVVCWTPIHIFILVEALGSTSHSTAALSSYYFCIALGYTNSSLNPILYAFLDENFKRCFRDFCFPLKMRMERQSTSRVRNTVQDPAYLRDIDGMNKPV

Chain of Histamine H2 receptor (P25021 whole entry): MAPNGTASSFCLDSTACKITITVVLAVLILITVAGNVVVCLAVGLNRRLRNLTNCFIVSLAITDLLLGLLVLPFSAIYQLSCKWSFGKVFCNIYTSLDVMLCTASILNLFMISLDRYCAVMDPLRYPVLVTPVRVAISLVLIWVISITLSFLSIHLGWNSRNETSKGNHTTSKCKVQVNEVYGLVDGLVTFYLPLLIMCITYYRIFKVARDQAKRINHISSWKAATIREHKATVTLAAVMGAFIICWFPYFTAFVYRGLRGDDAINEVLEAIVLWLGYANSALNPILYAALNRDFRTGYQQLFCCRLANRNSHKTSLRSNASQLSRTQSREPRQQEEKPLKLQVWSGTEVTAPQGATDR
Chain of Beta-2 adrenergic receptor (P07550 whole entry): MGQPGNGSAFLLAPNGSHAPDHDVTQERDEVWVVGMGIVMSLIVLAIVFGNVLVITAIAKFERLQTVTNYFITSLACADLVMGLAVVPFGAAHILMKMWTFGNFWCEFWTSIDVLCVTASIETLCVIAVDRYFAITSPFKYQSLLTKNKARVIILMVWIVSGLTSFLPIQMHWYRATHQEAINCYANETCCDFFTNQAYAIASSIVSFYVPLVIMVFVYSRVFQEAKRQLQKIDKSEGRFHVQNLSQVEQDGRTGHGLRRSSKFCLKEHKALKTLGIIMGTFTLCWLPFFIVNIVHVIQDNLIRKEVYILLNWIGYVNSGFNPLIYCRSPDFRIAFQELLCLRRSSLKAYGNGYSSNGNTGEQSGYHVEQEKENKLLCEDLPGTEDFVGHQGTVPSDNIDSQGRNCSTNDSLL
Chain of Adenosine receptor A2a (P29274 whole entry): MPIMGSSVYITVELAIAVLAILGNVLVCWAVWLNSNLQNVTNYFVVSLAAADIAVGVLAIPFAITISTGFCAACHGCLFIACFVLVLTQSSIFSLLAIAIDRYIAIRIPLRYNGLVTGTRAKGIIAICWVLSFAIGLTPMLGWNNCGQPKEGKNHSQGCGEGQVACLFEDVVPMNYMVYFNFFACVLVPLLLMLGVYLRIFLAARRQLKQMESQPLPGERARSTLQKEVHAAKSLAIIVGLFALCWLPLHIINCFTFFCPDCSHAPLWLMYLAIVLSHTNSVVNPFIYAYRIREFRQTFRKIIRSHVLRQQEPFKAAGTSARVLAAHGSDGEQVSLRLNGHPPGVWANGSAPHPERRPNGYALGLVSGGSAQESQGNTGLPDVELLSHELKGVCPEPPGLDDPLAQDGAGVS
Chain of Sodium-dependent noradrenaline transporter (P23975 whole entry): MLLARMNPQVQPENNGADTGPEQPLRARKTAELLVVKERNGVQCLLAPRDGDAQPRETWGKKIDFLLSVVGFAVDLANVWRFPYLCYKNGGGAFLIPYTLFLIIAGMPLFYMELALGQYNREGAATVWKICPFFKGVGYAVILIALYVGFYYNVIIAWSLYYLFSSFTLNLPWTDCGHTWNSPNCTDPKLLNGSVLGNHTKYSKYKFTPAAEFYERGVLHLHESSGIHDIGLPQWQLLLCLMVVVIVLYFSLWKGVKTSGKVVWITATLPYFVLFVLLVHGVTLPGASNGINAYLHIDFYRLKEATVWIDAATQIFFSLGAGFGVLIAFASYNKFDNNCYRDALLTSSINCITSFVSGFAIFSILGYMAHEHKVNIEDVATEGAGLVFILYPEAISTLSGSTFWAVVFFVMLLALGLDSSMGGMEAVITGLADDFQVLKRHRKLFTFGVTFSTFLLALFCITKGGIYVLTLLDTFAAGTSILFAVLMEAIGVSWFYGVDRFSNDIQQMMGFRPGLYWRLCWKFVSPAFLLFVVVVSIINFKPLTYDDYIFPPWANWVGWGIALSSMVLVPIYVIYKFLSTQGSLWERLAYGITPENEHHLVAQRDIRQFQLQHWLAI

CC1=C(CC(=O)O)c2cc(F)ccc2/C1=C\c1ccc([S+](C)[O-])cc1 (configuration not stated)
Not Active: IC50 ([1]; mdck) | IC50 [2] | Ki [2] | IC50 [3] | IC50 [4] | IC50 [5] | Ki [5] | IC50 [6] | IC50 (Adenosine receptor A2a) | IC50 [7] | Ki [7] | IC50 (Histamine H2 receptor; cho-k1) | IC50 [8]

N[C@H](CSC(=S)NCc1ccccc1)C(=O)O
Not Active: IC50 ([1]; mdck) | IC50 [2] | Ki [2] | IC50 [3] | IC50 [4] | IC50 [5] | Ki [5] | IC50 [6] | IC50 (Adenosine receptor A2a) | IC50 [7] | Ki [7] | IC50 (Histamine H2 receptor; cho-k1) | IC50 [8]

CC(=O)N[C@@H]1[C@H](Oc2c3cc4cc2Oc2ccc(cc2Cl)[C@@H](O[C@@H]2O[C@@H](CO)[C@@H](O)[C@H](O)[C@@H]2NC(C)=O)[C@@H]2NC(=O)[C@H](NC(=O)[C@@H]4NC(=O)[C@H]4NC(=O)[C@@H](Cc5ccc(c(Cl)c5)O3)NC(=O)[C@H](N)c3ccc(O)c(c3)Oc3cc(O)cc4c3)c3ccc(O)c(c3)-c3c(O[C@H]4O[C@H](CO)[C@@H](O)[C@@H](O)[C@@H]4O)cc(O)cc3[C@@H](C(=O)O)NC2=O)O[C@@H](CO)[C@@H](O)[C@@H]1O
Not Active: IC50 ([1]; mdck) | IC50 [2] | Ki [2] | IC50 [3] | IC50 [4] | IC50 [5] | Ki [5] | IC50 [6] | IC50 (Adenosine receptor A2a) | IC50 [7] | Ki [7] | IC50 (Histamine H2 receptor; cho-k1) | IC50 [8]

Clc1ccc2c(c1)C(N1CCNCC1)=Nc1ccccc1O2 [AMOXAPINE]
Not Active: IC50 [3] | IC50 [4] | IC50 [6] | IC50 (Adenosine receptor A2a) | IC50 (Histamine H2 receptor; cho-k1) | IC50 [8]

COc1cc2c(c(OC)c1OC)-c1ccc(OC)c(=O)cc1[C@@H](NC(C)=O)CC2 [COLCHICINE]
Not Active: IC50 ([1]; mdck) | IC50 [3] | IC50 [4] | IC50 [6] | IC50 (Adenosine receptor A2a) | IC50 (Histamine H2 receptor; cho-k1)

CN1CCC(=C2c3ccccc3C=Cc3ccccc32)CC1 [CYPROHEPTADINE]
0.195 µM: Ki (Histamine H2 receptor)
0.198 µM: IC50 (Histamine H2 receptor; read-out: IC50)
Not Active: IC50 [3] | IC50 [4] | IC50 [6] | IC50 (Adenosine receptor A2a) | IC50 [8]

CC/C(=C(/CC)c1ccc(O)cc1)c1ccc(O)cc1 [DIETHYLSTILBESTROL]
Not Active: IC50 [3] | IC50 [4] | IC50 [6] | IC50 (Histamine H2 receptor; cho-k1)

CC(=O)N1CCN(c2ccc(OCC3COC(Cn4ccnc4)(c4ccc(Cl)cc4Cl)O3)cc2)CC1 (configuration not stated) [KETOCONAZOLE]
24 µM: Ki ([1]; read-out: Ki)
21.5 µM: Ki (Histamine H2 receptor)
24.2 µM: IC50 ([1]; read-out: IC50)
21.9 µM: IC50 (Histamine H2 receptor; read-out: IC50)
Not Active: IC50 [2] | Ki [2] | IC50 [3] | IC50 [4] | IC50 [5] | Ki [5] | IC50 [6] | IC50 (Adenosine receptor A2a) | IC50 [7] | Ki [7] | IC50 [8]

C=CCN1CC[C@]23c4c5ccc(O)c4O[C@H]2C(=O)CC[C@@]3(O)[C@H]1C5 [NALOXONE]
Not Active: IC50 ([1]; mdck) | IC50 [3] | IC50 [4] | IC50 [6] | IC50 (Adenosine receptor A2a) | IC50 (Histamine H2 receptor; cho-k1)

COCCOC(=O)C1=C(C)NC(C)=C(C(=O)OC(C)C)C1c1cccc([N+](=O)[O-])c1 (configuration not stated) [NIMODIPINE]
Not Active: IC50 ([1]; mdck) | IC50 [2] | Ki [2] | IC50 [3] | IC50 [4] | IC50 [5] | Ki [5] | IC50 [6] | IC50 (Adenosine receptor A2a) | IC50 [7] | Ki [7] | IC50 (Histamine H2 receptor; cho-k1) | IC50 [8]

CC(C)NCC(O)COc1cccc2ccccc12 (configuration not stated) [PROPRANOLOL]
Not Active: IC50 [3] | IC50 [6] | IC50 (Adenosine receptor A2a) | IC50 (Histamine H2 receptor; cho-k1) | IC50 [8]

COCCCOc1ccnc(C[S+]([O-])c2nc3ccccc3[nH]2)c1C (configuration not stated) [RABEPRAZOLE]
Not Active: IC50 ([1]; mdck) | IC50 [2] | Ki [2] | IC50 [3] | IC50 [4] | IC50 [5] | Ki [5] | IC50 [6] | IC50 (Adenosine receptor A2a) | IC50 [7] | Ki [7] | IC50 (Histamine H2 receptor; cho-k1) | IC50 [8]

O=C(c1ccc(OCCN2CCCCC2)cc1)c1c(-c2ccc(O)cc2)sc2cc(O)ccc12 [RALOXIFENE]
Not Active: IC50 [2] | Ki [2] | IC50 [3] | IC50 [4] | IC50 [5] | Ki [5] | IC50 [6] | IC50 [7] | Ki [7] | IC50 (Histamine H2 receptor; cho-k1)

CNC(=C[N+](=O)[O-])NCCSCc1ccc(CN(C)C)o1 [RANITIDINE]
Not Active: IC50 ([1]; mdck) | IC50 [2] | Ki [2] | IC50 [3] | IC50 [4] | IC50 [5] | Ki [5] | IC50 [6] | IC50 (Adenosine receptor A2a) | IC50 [7] | Ki [7] | IC50 (Histamine H2 receptor; cho-k1) | IC50 [8]

CO[C@H]1/C=C/O[C@@]2(C)Oc3c(C)c(O)c4c(c3C2=O)C2=NC3(CCN(CC(C)C)CC3)NC2=C(NC(=O)/C(C)=C\C=C\[C@H](C)[C@H](O)[C@@H](C)[C@@H](O)[C@@H](C)[C@H](OC(C)=O)[C@@H]1C)C4=O [RIFABUTIN]
Not Active: IC50 ([1]; mdck) | IC50 [2] | Ki [2] | IC50 [3] | IC50 [4] | IC50 [5] | Ki [5] | IC50 [6] | IC50 (Adenosine receptor A2a) | IC50 [7] | Ki [7] | IC50 (Histamine H2 receptor; cho-k1) | IC50 [8]

CC(C)c1nc(CN(C)C(=O)N[C@H](C(=O)N[C@@H](Cc2ccccc2)C[C@H](O)[C@H](Cc2ccccc2)NC(=O)OCc2cncs2)C(C)C)cs1 [RITONAVIR]
Not Active: IC50 ([1]; mdck) | IC50 [2] | Ki [2] | IC50 [3] | IC50 [4] | IC50 [5] | Ki [5] | IC50 [6] | IC50 (Adenosine receptor A2a) | IC50 [7] | Ki [7] | IC50 (Histamine H2 receptor; cho-k1)

CC(C)CC(N(C)C)C1(c2ccc(Cl)cc2)CCC1 (configuration not stated) [SIBUTRAMINE]
Not Active: IC50 [2] | Ki [2] | IC50 [3] | IC50 [4] | IC50 [5] | Ki [5] | IC50 [6] | IC50 (Adenosine receptor A2a) | IC50 [7] | Ki [7] | IC50 (Histamine H2 receptor; cho-k1) | IC50 [8]

[H]/N=C(/N)N[C@H]1[C@H](O)[C@@H](O)[C@H](O[C@@H]2O[C@@H](C)[C@](O)(C=O)[C@H]2O[C@@H]2O[C@@H](CO)[C@H](O)[C@@H](O)[C@@H]2NC)[C@@H](N/C(N)=N\[H])[C@@H]1O [STREPTOMYCIN]
Not Active: IC50 ([1]; mdck) | IC50 [2] | Ki [2] | IC50 [3] | IC50 [4] | IC50 [5] | Ki [5] | IC50 [6] | IC50 (Adenosine receptor A2a) | IC50 [7] | Ki [7] | IC50 (Histamine H2 receptor; cho-k1) | IC50 [8]

COc1cc(NS(=O)(=O)c2ccc(N)cc2)nc(OC)n1 [SULFADIMETHOXINE]
Not Active: IC50 ([1]; mdck) | IC50 [2] | Ki [2] | IC50 [3] | IC50 [4] | IC50 [5] | Ki [5] | IC50 [6] | IC50 (Adenosine receptor A2a) | IC50 [7] | Ki [7] | IC50 (Histamine H2 receptor; cho-k1) | IC50 [8]

Cc1cc(C)nc(NS(=O)(=O)c2ccc(N)cc2)n1 [SULFAMETHAZINE]
Not Active: IC50 ([1]; mdck) | IC50 [2] | Ki [2] | IC50 [3] | IC50 [4] | IC50 [5] | Ki [5] | IC50 [6] | IC50 (Adenosine receptor A2a) | IC50 [7] | Ki [7] | IC50 (Histamine H2 receptor; cho-k1) | IC50 [8]

CC(C)(C)c1ccc(C(O)CCCN2CCC(C(O)(c3ccccc3)c3ccccc3)CC2)cc1 (configuration not stated) [TERFENADINE]
Not Active: IC50 [2] | Ki [2] | IC50 [3] | IC50 [4] | IC50 [5] | Ki [5] | IC50 [6] | IC50 (Adenosine receptor A2a) | IC50 [7] | Ki [7] | IC50 (Histamine H2 receptor; cho-k1) | IC50 [8]

CC(=O)CC(c1ccccc1)c1c(O)c2ccccc2oc1=O (configuration not stated) [WARFARIN]
Not Active: IC50 ([1]; mdck) | IC50 [2] | Ki [2] | IC50 [3] | IC50 [4] | IC50 [5] | Ki [5] | IC50 [6] | IC50 (Adenosine receptor A2a) | IC50 [7] | Ki [7] | IC50 (Histamine H2 receptor; cho-k1)
